Eight molecules from US20240389596A1, “INSECT, ACARINA AND NEMATODE PEST CONTROL” (priority 2021, published 2024) can be followed below.

For this data set, the system named is Spodoptera littoralis (Egyptian cotton leaf worm). The data set is described as follows: Spodoptera littoralis (Egyptian cotton leaf worm) feeding/contact activity assay on cotton leaf discs. The format is in vivo. The conditions noted are these: for Mortality (%) Observed (%): single active ingredient, L1 larvae, 3 days after infestation; for Mortality (%) Expected (%): component B alone, value printed in the Expected column. The text has this: A synergistic effect exists whenever the action of an active ingredient combination is greater than the sum of the actions of the individual components. The action to be expected E for a given active ingredient combination obeys the so-called COLBY formula and can be calculated as follows (COLBY, S. R. “Calculating synergistic and antagonistic responses of herbicide combination”. Weeds, Vol. 15, pages 20-22 1967):
ppm=milligrams of active ingredient (a.i.) per liter X=% action by first active ingredient using p ppm of the active ingredient Y=% action by second active ingredient using q ppm of the active ingredient.
According to Colby, the expected (additive) action of active ingredients A+B using p+q ppm of active ingredient is
If the action actually observed O is greater than the expected action E, then the action of the combination is super-additive, i.e. there is a synergistic effect. In mathematical terms, synergism corresponds to a positive value for the difference of (O-E). In the case of purely complementary addition of activities (expected activity), said difference (O-E) is zero. A negative value of said difference (O-E) signals a loss of activity compared to the expected activity.
The synergistic biological activity of combinations of component (A) and component (B) as disclosed herein was assessed using a Spodoptera littoralis (Egyptian cotton leaf worm) feeding/contact activity assay. Cotton leaf discs were placed onto agar in 24-well microtiter plates and sprayed with aqueous test solutions prepared from 10′000 ppm DMSO stock solutions. After drying the leaf discs were infested with L1 larvae. The samples were assessed for mortality 3 days after infestation.

With `O=C(Nc1ccc(F)c(NC(=O)C(F)F)c1F)c1cc(NC(=O)[C@H]2[C@H](c3cc(C(F)(F)F)cc(C(F)(F)F)c3)C2(Cl)Cl)ccc1Cl` [A-1], the “Mortality (%) Observed (%)” value reads like this: ([AI] 0.016 mg/L) 0%; ([AI] 0.031 mg/L) 0%; ([AI] 0.062 mg/L) 0%; ([AI] 0.125 mg/L) 0%; ([AI] 0.25 mg/L) 80%; ([AI] 0.5 mg/L) 100%.
For the molecule `CCN(C(=O)c1cnn(C(C)C(C)C)c1C)c1ccnnc1` (stereo not drawn) [B-17, dimpropyridaz], the “Mortality (%) Observed (%)” value is, setting by setting: ([AI] 15.625 mg/L) 0%; ([AI] 31.25 mg/L) 0%; ([AI] 62.5 mg/L) 0%; ([AI] 125 mg/L) 0%.
Regarding `CC(c1ccc(C(F)(F)F)nc1)S(C)(=O)=NC#N` (stereo not drawn) [B-55, sulfoxaflor], the “Mortality (%) Observed (%)” value by setting is: ([AI] 62.5 mg/L) 0%; ([AI] 125 mg/L) 0%; ([AI] 250 mg/L) 10%.
Consider `CNC(=O)c1cc(Cl)cc(C)c1NC(=O)c1cc(Br)nn1-c1ncccc1Cl` [B-46, chlorantraniliprole], for which the “Mortality (%) Observed (%)” value is reported as 0% ([AI] 0.062 mg/L), 0% ([AI] 0.125 mg/L), 0% ([AI] 0.25 mg/L) and 100% ([AI] 0.5 mg/L).
For the molecule `C[n+]1c([O-])c(-c2ccccc2)c(=O)n2c1SC[C@@H]2c1cnc(Cl)s1` [B-4, fenmezoditiaz], the “Mortality (%) Observed (%)” value is 0% ([AI] 15.625 mg/L), 0% ([AI] 31.25 mg/L) and 0% ([AI] 62.5 mg/L).
For the molecule `O=c1c(-c2cccc(C(F)(F)F)c2)c([O-])[n+](Cc2cncnc2)c2ccccn12` [B-42, triflumezopyrim], the “Mortality (%) Observed (%)” value ([AI] 15.625 mg/L) turned out to be 0%; the “Mortality (%) Observed (%)” value ([AI] 31.25 mg/L) came out at 0%; the “Mortality (%) Observed (%)” value ([AI] 62.5 mg/L) amounted to 0%; the “Mortality (%) Observed (%)” value ([AI] 125 mg/L) came to 20%; the “Mortality (%) Observed (%)” value ([AI] 250 mg/L) was 20%.
On to `CCS(=O)(=O)c1cccnc1-c1cnc(OCC(F)(F)C(F)(F)F)cn1` [B-10, 2-(3-ethylsulfonyl-2-pyridyl)-5-(2,2,3,3,3-pentafluoropropoxy)pyrazine], for which the “Mortality (%) Observed (%)” value stood at 0% ([AI] 0.625 mg/L); 10% ([AI] 1.25 mg/L); 50% ([AI] 2.5 mg/L); 100% ([AI] 5 mg/L); 100% ([AI] 10 mg/L).
`Cc1cc(Cl)cc(C)c1C1=C(O)C2(CCC3(CC2)OCCO3)NC1=O` [B-18, spidoxamat]: the “Mortality (%) Expected (%)” value was 0% ([AI] 7.812 mg/L), 0% ([AI] 15.625 mg/L) and 0% ([AI] 31.25 mg/L).
